# Experimental data as given in US3978130A, “1-Cyclopropyl-1-phenyl-ω-amino-1-alkanols” (A. H. Robins Company, Incorporated, priority 1974, dated 1976).
# Structures can show the parent of a compound that is named as a salt.
# Tested on: depressant effects induced in mice by tetrabenazine
# Assay: Blocking of the depressant effects induced in mice by intravenous tetrabenazine (modified Englehardt procedure)
# Type: in vivo
# Details: Mus musculus, IP
# Method: The activity of the compounds was determined by their effectiveness in blocking the depressant effects which are induced in mice by the intravenous administration of 2-oxo-3-isobutyl-9,10-dimethoxy-1,2,3,4,6,7-hexahydro-11bh-benzo[a] quinolizine (tetrabenazine). The procedure used was a modification of Englehardt, E. L. et al, J. Med. Chem. 11 (2), 325(1968). The ED50 values of the compounds are given in Table I; the compounds of Examples 3, 5, 7 and 8 are the preferred compounds.
row,SMILES,ED50 [mg/kg]
1,"CN(C)CCC(O)(c1ccccc1)C1CC1 (centres unmarked) [Example 1, 1-Cyclopropyl-3-dimethylamino-1-phenyl-1-propanol Hydrochloride]",10
2,"COc1ccc(C(O)(CCN(C)C)C2CC2)cc1 (centres unmarked) [Example 4, 1-Cyclopropyl-3-dimethylamino-1-(4-methoxyphenyl)-1-propanol Hydrobromide]",7.8
3,"CN(C)CCCC(O)(c1ccccc1)C1CC1 (centres unmarked) [Example 2, 1-Cyclopropyl-4-dimethylamino-1-phenyl-1-butanol Hydrochloride]",12.5
4,"CN(C)CCC(O)(c1ccc(C(F)(F)F)cc1)C1CC1 (centres unmarked) [Example 6, 1-Cyclopropyl-3-dimethylamino-1-(4-trifluoromethylphenyl)-1-propanol Hydrochloride]",12
5,"CCN(CC)CCC(O)(c1cccc(C(F)(F)F)c1)C1CC1 (centres unmarked) [Example 7, 1-Cyclopropyl-3-diethylamino-1-(3-trifluoromethylphenyl)-1-propanol Hydrochloride]",4.2
6,"CN(C)CCC(O)(c1cccc(C(F)(F)F)c1)C1CC1 (centres unmarked) [Example 5, 1-Cyclopropyl-3-dimethylamino-1-(3-trifluoromethylphenyl)-1-propanol Hydrochloride]",2.5
7,"CN(C)CCC(O)(c1cccc(Cl)c1)C1CC1 (centres unmarked) [Example 3, 1-Cyclopropyl-3-dimethylamino-1-(3-chlorophenyl)-1-propanol Hydrochloride]",6.4
8,"CNCCC(O)(c1cccc(C(F)(F)F)c1)C1CC1 (centres unmarked) [Example 8, 1-Cyclopropyl-3-methylamino-1-(3-trifluoromethylphenyl)-1-propanol]",4.6
